From PubChem BioAssay (NCI)
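Grown in 96-well plates, cells were treated for 48 hours with each compound at five concentrations. Insufficient inhibition: endpoint recorded as highest concentration tested. TGI: concentration producing complete growth inhibition.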

Tests used:
Assay in all cases: DTP human tumour cell line panel, 48 h
[1] = system: UO-31 renal
[2] = system: CAKI-1 renal
[3] = system: CCRF-CEM leukemia
[4] = system: NCI-H226 lung
[5] = system: HCT-116 colon
[6] = system: 786-0 renal
[7] = system: HS 578T breast
[8] = system: MALME-3M melanoma
[9] = system: NCI-H522 lung

SMILES | TGI [1] | TGI [2] | TGI [3] | TGI [4] | TGI [5] | TGI [6] | TGI [7] | TGI [8] | TGI [9]
Cc1cc2c(C)cc(=O)[nH]c2cc1N | > 100 µM | > 100 µM | > 100 µM | > 100 µM | > 100 µM | > 100 µM | – | – | –
O=C(Nc1cccc2cnccc12)c1cc2c(cc1Cl)Sc1nccn1S2(=O)=O | 55.6 µM | 91.5 µM | – | 38.5 µM | 20 µM | 33.1 µM | 73.7 µM | 38.7 µM | 33.2 µM
COc1ccc(Nc2nc3ccc(C(F)(F)F)cc3nc2C(=O)O)cc1OC | 43.7 µM | > 100 µM | – | > 100 µM | 80 µM | > 100 µM | 96.6 µM | > 100 µM | 84.6 µM
CC(=O)OC[C@]1(C(=O)C(O)c2ccoc2)[C@H](C)CC[C@@]23COC(=O)C2=CCC[C@@H]31 (stereo partly specified) | > 10 µM | > 10 µM | > 10 µM | > 10 µM | > 10 µM | > 10 µM | > 10 µM | – | > 10 µM
O=c1c2ncn(C3CC(O)C(CO)O3)c2nnn1Cc1ccccc1[N+](=O)[O-] (stereo unspecified) | > 100 µM | > 100 µM | > 100 µM | > 100 µM | > 100 µM | > 100 µM | > 100 µM | > 100 µM | > 100 µM
CCOC1CC(=O)c2c(Br)sc(Br)c21 (stereo unspecified) | 33.5 µM | 31 µM | 50.8 µM | – | 38.4 µM | 94.7 µM | 90.6 µM | 40.8 µM | 52.7 µM
OC[C@@H](O)[C@H]1NC[C@@H](O)[C@H]1O | > 100 µM | > 100 µM | > 100 µM | – | > 100 µM | > 100 µM | > 100 µM | > 100 µM | > 100 µM
CC1(C)C(c2ccccc2)=[N+]([O-])C(C)(C)N1O | – | > 10 µM | > 10 µM | > 10 µM | > 10 µM | > 10 µM | > 10 µM | > 10 µM | > 10 µM
O=[N+]([O-])C(=C(N1CCCCC1)N1CCCCC1)/C(Cl)=C(\Cl)Br | > 100 µM | 26.6 µM | 42.4 µM | 44.6 µM | 41.7 µM | 67.8 µM | 45.4 µM | 64.9 µM | 33.9 µM
COc1ccc(/C(=N/O)c2ccccc2-c2nc3ccccc3c(=O)n2-c2ccc(S(=O)(=O)Nc3ncccn3)cc2)cc1C | > 31.6 µM | > 31.6 µM | 25.5 µM | – | 22.1 µM | – | > 100 µM | – | 23.7 µM
CCOC(=O)c1[nH]cc(C)c1-c1ccn(-c2ccccc2)c1 | > 100 µM | > 100 µM | 79.3 µM | > 100 µM | > 100 µM | > 100 µM | > 100 µM | – | 71.2 µM
CC(=O)OC(C)c1cc2c(s1)C(=O)c1sccc1C2=O (stereo unspecified) | 3.28 µM | 8.23 µM | > 100 µM | 3.94 µM | 2.48 µM | – | 7.36 µM | 0.407 µM | 3.34 µM
CC(=O)NS(=O)(=O)c1ccc(NC(=O)c2c3ccccc3nc3ccccc23)cc1 | > 100 µM | > 100 µM | > 100 µM | – | > 100 µM | > 100 µM | – | > 100 µM | > 100 µM
